# According to ChEMBL document CHEMBL1124202, “Synthesis and evaluation of multisubstrate inhibitors of an oncogene-encoded tyrosine-specific protein kinase. 2” (J Med Chem, 1988):
# Molecular target: T1, Tyrosine-protein kinase transforming protein Abl (Abelson murine leukemia virus, UniProt P00521)
# T1 sequence (P00521 whole entry): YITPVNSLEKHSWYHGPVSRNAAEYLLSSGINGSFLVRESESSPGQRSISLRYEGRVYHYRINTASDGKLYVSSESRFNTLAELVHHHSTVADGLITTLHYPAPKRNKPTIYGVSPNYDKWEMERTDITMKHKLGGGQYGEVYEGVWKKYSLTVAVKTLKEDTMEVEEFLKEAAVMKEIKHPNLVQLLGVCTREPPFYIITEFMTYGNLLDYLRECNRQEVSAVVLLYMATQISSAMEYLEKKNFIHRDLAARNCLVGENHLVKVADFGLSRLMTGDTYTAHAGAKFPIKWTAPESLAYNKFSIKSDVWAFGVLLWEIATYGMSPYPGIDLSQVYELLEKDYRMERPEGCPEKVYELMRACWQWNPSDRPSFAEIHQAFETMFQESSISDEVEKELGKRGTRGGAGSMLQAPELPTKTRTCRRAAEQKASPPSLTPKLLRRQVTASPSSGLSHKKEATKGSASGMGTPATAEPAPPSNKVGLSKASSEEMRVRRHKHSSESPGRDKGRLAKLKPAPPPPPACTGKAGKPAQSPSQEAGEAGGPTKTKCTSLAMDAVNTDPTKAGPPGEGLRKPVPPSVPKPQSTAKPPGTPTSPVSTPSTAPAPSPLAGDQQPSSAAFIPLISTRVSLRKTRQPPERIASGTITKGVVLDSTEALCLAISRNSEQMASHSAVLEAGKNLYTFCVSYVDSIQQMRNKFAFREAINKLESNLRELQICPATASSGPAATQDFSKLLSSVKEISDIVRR
# Assay: Inhibition of p60v-abl tyrosine kinase from Abelson murine leukemia virus
row,SMILES,IC50 [µM]
1,Cc1ccc(NP(=O)(O)OP(=O)(O)OP(=O)(O)OP(=O)(O)OC[C@H]2O[C@@H](n3cnc4c(N)ncnc43)[C@H](O)[C@@H]2O)cc1,16
2,CC(=O)NC(Cc1ccc(NP(=O)(O)OP(=O)(O)OP(=O)(O)OP(=O)(O)OC[C@H]2O[C@@H](n3cnc4c(N)ncnc43)[C@H](O)[C@@H]2O)cc1)C(N)=O (stereo partly drawn),110
3,Nc1ncnc2c1ncn2[C@@H]1O[C@H](COP(=O)(O)OP(=O)(O)OP(=O)(O)Oc2ccccc2)[C@@H](O)[C@H]1O,13
4,Cc1ccc(NP(=O)(O)OP(=O)(O)OP(=O)(O)OC[C@H]2O[C@@H](n3cnc4c(N)ncnc43)[C@H](O)[C@@H]2O)cc1,150
5,CC(=O)NC(Cc1ccc(NP(=O)(O)OP(=O)(O)OP(=O)(O)OC[C@H]2O[C@@H](n3cnc4c(N)ncnc43)[C@H](O)[C@@H]2O)cc1)C(N)=O (stereo partly drawn),44
6,Nc1ncnc2c1ncn2[C@@H]1O[C@H](COP(=O)(O)OP(=O)(O)OP(=O)(O)OP(=O)(O)Oc2ccccc2)[C@@H](O)[C@H]1O,41
7,CC(=O)NCCNP(=O)(O)OP(=O)(O)OP(=O)(O)OC[C@H]1O[C@@H](n2cnc3c(N)ncnc32)[C@H](O)[C@@H]1O,25
8,COc1ccc(CNP(=O)(O)OP(=O)(O)OP(=O)(O)OC[C@H]2OC(n3cnc4c(N)ncnc43)[C@H](O)[C@@H]2O)cc1 (stereo partly drawn),90
